Test results taken from US10501461B2, “Tyrosine amide derivatives as Rho-kinase inhibitors” (CHIESI FARMACEUTICI S.P.A., priority 2017, dated 2019).

What was measured:
[1] = target: Rho kinase 2 (ROCK-II) (Homo sapiens, UniProt O75116); assay: In vitro Rho kinase inhibitory activity assay (ADP-Glo), Rho kinase 2; format: biochemical; conditions: 10 μM ATP, 25° C., expressed as range of activity
Experimental: (§1) The effectiveness of compounds of the present invention to inhibit Rho kinase activity can be determined in a 10 μl assay containing 40 mM Tris pH7.5, 20 mM MgCl2 0.1 mg/ml BSA, 50 μM DTT and 2.5 μM peptide substrate (Myelin Basic Protein) using an ADP-Glo kit (Promega). Compounds were dissolved in DMSO such that the final concentration of DMSO was 1% in the assay. All reactions/incubations are performed at 25° C. Compound (2 ul) and either Rho kinase 1 or 2 (4 μl) were mixed and incubated for 30 mins. Reactions were initiated by addition of ATP (4 μl) such that the final concentration of ATP in the assay was 10 μM. After a 1 hour incubation 10 μl of ADP-Glo Reagent was added and after a further 45 minute incubation 20 ul of Kinase Detection Buffer was added and the mixture incubated for a further 30 minutes. The luminescent signal was measured on a luminometer. […] Compounds were tested in dose-response format and the inhibition of kinase activity was calculated at each concentration of compound. To determine the IC50 (concentration of compound required to inhibit 50% of the enzyme activity) data were fit to a plot of % inhibition vs Log10 compound concentration using a sigmoidal fit with a variable slope and fixing the maximum to 100% and the minimum to 0%. To determine the Ki values the Cheng-Prusoff equation was utilized (Ki=IC50/(1+[S]/Km).

[2] = target: Rho kinase 1 (ROCK-I) (Homo sapiens, UniProt Q13464); assay: In vitro Rho kinase inhibitory activity assay (ADP-Glo), Rho kinase 1; format: biochemical; conditions: 10 μM ATP, 25° C., expressed as range of activity
Experimental: as §1

Chain of Rho kinase 2 (ROCK-II) (O75116 whole entry): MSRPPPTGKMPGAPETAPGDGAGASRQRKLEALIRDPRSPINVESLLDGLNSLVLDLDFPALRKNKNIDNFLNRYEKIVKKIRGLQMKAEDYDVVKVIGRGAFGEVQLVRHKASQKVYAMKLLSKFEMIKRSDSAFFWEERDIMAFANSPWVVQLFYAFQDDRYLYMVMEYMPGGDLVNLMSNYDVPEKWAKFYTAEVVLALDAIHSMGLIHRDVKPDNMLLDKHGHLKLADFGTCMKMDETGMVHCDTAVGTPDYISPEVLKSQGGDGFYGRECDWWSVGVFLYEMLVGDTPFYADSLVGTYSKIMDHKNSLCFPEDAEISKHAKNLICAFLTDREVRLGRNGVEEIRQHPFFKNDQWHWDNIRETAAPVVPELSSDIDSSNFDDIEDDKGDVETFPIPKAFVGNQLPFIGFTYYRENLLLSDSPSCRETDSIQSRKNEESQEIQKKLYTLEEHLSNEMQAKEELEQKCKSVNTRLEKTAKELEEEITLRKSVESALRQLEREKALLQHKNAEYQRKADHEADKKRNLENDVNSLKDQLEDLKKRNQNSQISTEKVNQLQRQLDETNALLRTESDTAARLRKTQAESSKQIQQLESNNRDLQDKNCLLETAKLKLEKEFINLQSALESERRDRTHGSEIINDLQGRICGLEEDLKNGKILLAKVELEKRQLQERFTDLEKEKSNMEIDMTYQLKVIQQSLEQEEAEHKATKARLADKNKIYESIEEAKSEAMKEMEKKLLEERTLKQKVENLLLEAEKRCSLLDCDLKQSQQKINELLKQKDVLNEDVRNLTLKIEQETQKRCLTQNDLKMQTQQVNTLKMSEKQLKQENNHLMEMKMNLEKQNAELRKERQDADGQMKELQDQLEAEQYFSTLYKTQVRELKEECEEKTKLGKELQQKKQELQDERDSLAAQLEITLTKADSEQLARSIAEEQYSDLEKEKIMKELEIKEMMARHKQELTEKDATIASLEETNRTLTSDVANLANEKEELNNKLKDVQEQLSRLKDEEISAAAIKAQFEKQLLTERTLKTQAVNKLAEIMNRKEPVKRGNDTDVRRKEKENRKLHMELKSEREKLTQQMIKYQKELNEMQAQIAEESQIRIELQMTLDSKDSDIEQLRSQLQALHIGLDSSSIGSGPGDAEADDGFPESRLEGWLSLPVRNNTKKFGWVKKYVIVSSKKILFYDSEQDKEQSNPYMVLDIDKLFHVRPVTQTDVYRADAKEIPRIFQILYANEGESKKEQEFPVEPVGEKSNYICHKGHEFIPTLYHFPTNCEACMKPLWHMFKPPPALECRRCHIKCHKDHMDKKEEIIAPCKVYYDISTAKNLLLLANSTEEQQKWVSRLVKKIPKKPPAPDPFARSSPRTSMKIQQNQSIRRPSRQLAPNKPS
Chain of Rho kinase 1 (ROCK-I) (Q13464 whole entry): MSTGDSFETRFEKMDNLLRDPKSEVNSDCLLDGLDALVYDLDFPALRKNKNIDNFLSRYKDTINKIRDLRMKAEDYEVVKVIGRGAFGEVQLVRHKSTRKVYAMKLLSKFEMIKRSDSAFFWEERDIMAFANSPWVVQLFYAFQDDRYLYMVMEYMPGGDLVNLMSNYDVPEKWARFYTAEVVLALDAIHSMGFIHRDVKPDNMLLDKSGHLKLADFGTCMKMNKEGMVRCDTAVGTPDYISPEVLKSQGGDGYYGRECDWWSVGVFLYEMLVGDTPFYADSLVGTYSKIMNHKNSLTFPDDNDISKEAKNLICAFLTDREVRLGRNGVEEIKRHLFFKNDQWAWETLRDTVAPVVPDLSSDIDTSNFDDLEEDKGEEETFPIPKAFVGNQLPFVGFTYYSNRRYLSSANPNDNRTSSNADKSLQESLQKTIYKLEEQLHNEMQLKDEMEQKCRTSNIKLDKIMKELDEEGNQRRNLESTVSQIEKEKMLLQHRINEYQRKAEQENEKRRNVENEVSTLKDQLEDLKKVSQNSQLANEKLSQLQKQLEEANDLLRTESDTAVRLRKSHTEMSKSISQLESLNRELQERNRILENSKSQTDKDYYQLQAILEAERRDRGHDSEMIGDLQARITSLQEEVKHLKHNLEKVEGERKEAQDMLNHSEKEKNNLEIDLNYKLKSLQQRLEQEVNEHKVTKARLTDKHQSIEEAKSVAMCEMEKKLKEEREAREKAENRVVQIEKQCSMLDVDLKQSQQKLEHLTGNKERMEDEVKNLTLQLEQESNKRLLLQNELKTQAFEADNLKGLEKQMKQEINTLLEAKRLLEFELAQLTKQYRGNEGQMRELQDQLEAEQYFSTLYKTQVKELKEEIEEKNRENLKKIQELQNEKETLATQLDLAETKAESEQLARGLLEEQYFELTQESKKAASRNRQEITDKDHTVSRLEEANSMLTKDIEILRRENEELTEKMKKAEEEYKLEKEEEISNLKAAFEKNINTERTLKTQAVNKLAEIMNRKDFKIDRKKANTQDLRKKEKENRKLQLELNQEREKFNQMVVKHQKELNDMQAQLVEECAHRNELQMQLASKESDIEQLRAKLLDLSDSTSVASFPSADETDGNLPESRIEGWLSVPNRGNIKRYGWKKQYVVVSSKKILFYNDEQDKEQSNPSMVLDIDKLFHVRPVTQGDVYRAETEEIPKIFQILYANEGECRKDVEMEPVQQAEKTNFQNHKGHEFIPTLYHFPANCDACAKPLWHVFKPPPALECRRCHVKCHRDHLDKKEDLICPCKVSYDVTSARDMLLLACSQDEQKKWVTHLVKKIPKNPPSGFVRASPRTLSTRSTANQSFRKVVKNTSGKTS

Row | Compound | Ki [1] [nM] | Ki [2] [nM]
1 | Cc1c[nH]c2nccc(Oc3ccc(C[C@H](N)C(=O)N4CCOC(c5ccccc5)C4)cc3F)c12 (mixture of isomers) [Example 4, (2S)-2-amino-3-(3-fluoro-4-((3-methyl-1H-pyrrolo[2,3-b]pyridin-4-yl)oxy)phenyl)-1-(2-phenylmorpholino)propan-1-one] | < 3 | < 3
2 | Cc1c[nH]c2nccc(Oc3ccc(C[C@H](N)C(=O)N4CCN(C)C(c5ccccc5)C4)cc3F)c12 (mixture of isomers) [Example 6, (2S)-2-amino-3-(3-fluoro-4-((3-methyl-1H-pyrrolo[2,3-b]pyridin-4-yl)oxy)phenyl)-1-(4-methyl-3-phenylpiperazin-1-yl)propan-1-one] | < 3 | < 3
3 | Cc1c[nH]c2nccc(Oc3ccc(CC(N)C(=O)N4CCC(c5ccncc5)C4)cc3F)c12 (racemic) [Example 66, 2-amino-3-(3-fluoro-4-((3-methyl-1H-pyrrolo[2,3-b]pyridin-4-yl)oxy)phenyl)-1-(3-(pyridin-4-yl)pyrrolidin-1-yl)propan-1-one] | < 3 | < 3
4 | Cc1noc(C2CCN(C(=O)[C@@H](N)Cc3ccc(Oc4ccnc5[nH]cc(C)c45)c(F)c3)C2)n1 (single isomer, unassigned) [Example 8A] | < 3 | < 3
5 | Cc1noc(C2CCN(C(=O)[C@@H](N)Cc3ccc(Oc4ccnc5[nH]cc(C)c45)c(F)c3)C2)n1 (single isomer, unassigned) [Example 8B] | < 3 | < 3
6 | Cc1c[nH]c2nccc(Oc3ccc(CC(N)C(=O)NCCc4ccncc4)cc3F)c12 (single isomer, unassigned) [Example 57A, 2-amino-3-(3-fluoro-4-((3-methyl-1H-pyrrolo[2,3-b]pyridin-4-yl)oxy)phenyl)-N-(2-(pyridin-4-yl)ethyl)propanamide] | < 3 | 3 to 30
7 | Cc1c[nH]c2nccc(Oc3ccc(CC(N)C(=O)NCCc4ccncc4)cc3F)c12 (single isomer, unassigned) [Example 57B, 2-amino-3-(3-fluoro-4-((3-methyl-1H-pyrrolo[2,3-b]pyridin-4-yl)oxy)phenyl)-N-(2-(pyridin-4-yl)ethyl)propanamide] | < 3 | < 3
8 | Cc1c[nH]c2nccc(Oc3ccc(CC(N)C(=O)N4CCCC4c4ccccc4)cc3F)c12 (single isomer, unassigned) [Example 84, 2-amino-3-(3-fluoro-4-((3-methyl-1H-pyrrolo[2,3-b]pyridin-4-yl)oxy)phenyl)-1-(2-phenylpyrrolidin-1-yl)propan-1-one] | 3 to 30 | 3 to 30
9 | Cc1c[nH]c2nccc(Oc3ccc(CC(N)C(=O)N4CCCC4c4ccccc4)cc3F)c12 (single isomer, unassigned) [Example 85, 2-amino-3-(3-fluoro-4-((3-methyl-1H-pyrrolo[2,3-b]pyridin-4-yl)oxy)phenyl)-1-(2-phenylpyrrolidin-1-yl)propan-1-one] | 3 to 30 | 3 to 30
10 | NC(Cc1ccc(Oc2ccnc3[nH]ccc23)cc1)C(=O)Nc1ccc(C(F)(F)F)cc1 (single isomer, unassigned) [Example 91A, 3-(4-((1H-pyrrolo[2,3-b]pyridin-4-yl)oxy)phenyl)-2-amino-N-(4-(trifluoromethyl)phenyl)propanamide] | < 3 | < 3
11 | NC(Cc1ccc(Oc2ccnc3[nH]ccc23)cc1)C(=O)Nc1ccc(C(F)(F)F)cc1 (single isomer, unassigned) [Example 91B, 3-(4-((1H-pyrrolo[2,3-b]pyridin-4-yl)oxy)phenyl)-2-amino-N-(4-(trifluoromethyl)phenyl)propanamide] | 3 to 30 | 3 to 30
12 | Cc1c[nH]c2nccc(Oc3ccc(CC(N)C(=O)N4CCN(Cc5ccccc5)CC4)cc3F)c12 (single isomer, unassigned) [Example 132A, 2-amino-1-(4-benzylpiperazin-1-yl)-3-(3-fluoro-4-((3-methyl-1H-pyrrolo[2,3-b]pyridin-4-yl)oxy)phenyl)propan-1-one] | < 3 | < 3
